Assay [1] has as its system TRANCE-induced marrow cultures (RANK Ligand/RANK interaction). Description: TRANCE-induced marrow cultures. Format: cell-based. The following applies: reciprocal dose-dependence of WP9QY and TRANCE.
Assay [2] relates to osteoclast formation (osteoclastogenesis). Particulars: co-culture induced by 1alpha,25-dihydroxyvitamin D3 and PGE2.
Assay [3] deals with TNF-α receptor. Particulars: L929 lymphocytes; cited from earlier work.
In assay [4] the target is T1, TNF (UniProt P01375 77-233).
T1 construct: also called TNF-alpha; Tumor Necrosis Factor
T1 sequence (P01375 77-233 limits assumed): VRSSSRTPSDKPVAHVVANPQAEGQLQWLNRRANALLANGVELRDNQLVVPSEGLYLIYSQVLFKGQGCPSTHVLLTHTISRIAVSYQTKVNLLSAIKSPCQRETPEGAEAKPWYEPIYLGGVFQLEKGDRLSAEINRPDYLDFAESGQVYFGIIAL
Description: inhibition of the TNF/TNF receptor interaction; format not described in Example 1.

The test system of assay [5] is osteoclastogenesis and associated bone resorption. Particulars: administration in vivo; animal models that mimic osteopenic disorders; cited from earlier work.

Positions of bridges follow the written chain, without caps; N, C: chain ends. No end group written: not given here.

Take `CC(C)C[C@@H]1NC(=O)[C@H](Cc2ccc(O)cc2)NC(=O)[C@H](CCC(N)=O)NC(=O)[C@H](CO)NC(=O)[C@H](Cc2c[nH]c3ccccc23)NC(=O)[C@@H](NC(=O)[C@@H](N)Cc2ccc(O)cc2)CSSC[C@@H](C(=O)N[C@@H](Cc2ccc(O)cc2)C(=O)O)NC1=O` [WP9QY, YC WSQYL CY]: the “effect on TRANCE-induced marrow cultures” value in assay [1] is reported as “inhibits”. In addition, in assay [2], the “inhibition of osteoclastogenesis, in words” value was “dose- and time-dependently inhibited”. Further, in assay [2] (read-out: IC50 for inhibition of osteoclastogenesis, peptide tested at about 5 μM to about 500 μM), the IC50 was 250 µM. Further, the “antagonism of the effects of TNF-binding to the TNF-α receptor” value in assay [3] was “efficiently antagonized”.

B1: WP9QY (peptide)
peptide: YCWSQYLCY
modifications: disulfide 2-8
notes: Synthetic exocyclic peptide; also called WP9QY peptide; peptidomimetic (WP9QY)
B1 yielded an IC50 in assay [4] of 5 µM.

B2: OPG: naturally occurring secreted protein with homology to members of the TNF receptor family; positive control in the TRAP assay (protein, UniProt O00300 22-401, looked up)
Tumor necrosis factor …: ETFPPKYLHYDEETSHQLLCDKCPPGTYLKQHCTAKWKTVCAPCPDHYYTDSWHTSDECLYCSPVCKELQYVKQECNRTHNRVCECKEGRYLEIEFCLKHRSCPPGFGVVQAGTPERNTVCKRCPDGFFSNETSSKAPCRKHTNCSVFGLLLTQKGNATHDNICSGNSESTQKCGIDVTLCEEAFFRFAVPTKFTPNWLSVLVDNLPGTKVNAESVERIKRQHSSQEQTFQLLKLWKHQNKDQDIVKKIIQDIDLCENSVQRHIGHANLTFEQLRSLMESLPGKKVGAEDIEKTIKACKPSDQILKLLSLWRIKNGDQDTLKGLMHALKHSKTYHFPKTVTQSLKKTIRFLHSFTMYKLYQKLFLEMIGNQVQSVKISCL
For the molecule B2, the “effect on osteoclastogenesis and associated bone resorption in vivo” value in assay [5] is “inhibits osteoclastogenesis and associated bone resorption”.

The IC50 is the midpoint of a concentration-inhibition curve.

(Values after US6682739B1, “Methods of inhibiting osteoclastogenesis” (The Trustees of the University of Pennsylvania, priority 1999, dated 2004).)
